Data as given in a melting point compilation (Tetko et al.; mined from patent text by program, amines drawn as free bases though some values may be those of a salt).

| melting point | Compound |
| --- | --- |
| 95 to 98 °C | CCc1ccc(O)c(C#N)c1 |
| 150 to 151 °C | Cc1cc2c(-c3ccccc3)c(COS(C)(=O)=O)n(C)c(=O)c2cc1C |
| 155 to 156 °C | CC(C)(C)n1nc(-c2ccc(C(F)(F)F)cc2)c(C#N)c1N |
| 122 to 123 °C | Cc1cccc2c1CCC(=O)C2(O)C(F)(F)F (stereo not given) |
| > 250 °C | CN1CCN(c2ncnc3c(NC(=O)c4c(Cl)cccc4Cl)cccc23)C1=O |
| 166 °C | CCOc1cc(C(F)(F)F)cc(Cl)c1-n1nc(C#N)c(SC(F)(F)F)c1N |
| 185 to 186 °C | NC(=O)Cc1cc(=O)oc2cc(OCc3cccc(Cl)c3)ccc12 |
| 134 to 136 °C | N#CC(C(=O)c1ccc(Cl)cc1)=C1CCC(C(=O)O)N1 (stereo not given) |
| 108 to 110 °C | O=C1C(Cc2ccncc2)c2ccccc2N1N1CCOCC1 (stereo not given) |
| 60 °C | CC(C)(Br)C1CC(=O)OC1OCc1cccc(Oc2ccccc2)c1 (stereo not given) |
| 67 to 69 °C | CC(C)N1C(CO)=Cc2ccsc2S1(=O)=O |
| 186 to 190 °C | CCc1cnc(N2CCC(c3nc4cc(-c5ccc(S(C)(=O)=O)cc5F)ccc4[nH]3)CC2)nc1 |
| 178 to 182 °C | CCCOc1cccc(-c2nn(C(C)c3oc4ccccc4c(=O)c3-c3cccc(F)c3)c3ncnc(N)c23)c1 (stereo not given) |
| 168 to 169 °C | O=C(Nc1c(Cl)cccc1Cl)c1cccc2cccnc12 |
| 272 °C | Cn1nnc2c(N3CCOCC3)nc(-c3ccc(NC(=O)Nc4ccsc4)cc3)nc21 |
| 97 to 99 °C | O=C(NC[C@H](O)c1ccccc1)c1ccnc(N2CCN(Cc3ccc(F)cc3)C2=O)c1 |
| 41.5 to 42.5 °C | Cc1ccsc1C(O)CCN(C)C (stereo not given) |
| 176 to 177 °C | Cc1ccc(Cl)cc1NC(=S)Nc1c(C)nn(C)c1C |
| 116 to 118 °C | Cc1c(OC(C)(C)C(=O)O)ccc(OCCCC#Cc2ccc(OC(F)(F)F)cc2)c1F |
| > 360 °C | CC1(C)CCC(C)(C)c2cc(NCC(=O)O)ccc21 |
| 86 to 87 °C | CN(CCCl)C(=O)Nc1ccc([N+](=O)[O-])cc1C(F)(F)F |
| 138 to 140 °C | CCCC/C=C\c1c([C@H](O)[C@H](CCCC)NC(=O)[C@H](CC(C)C)NC(=O)OCC2CCCCC2)c1=O |
| 156 to 161 °C | C[C@@H]1Cc2ccsc2[C@H](c2cccs2)N1CCNS(=O)(=O)c1ccc(N)cc1 (relative stereo) |

| melting point | Compound |
| --- | --- |
| 64 °C | CCN(CCCN1CCN(c2ccccc2OC)CC1)C1CCc2ncsc2C1 (stereo not given) |
| 93 to 115 °C | CC(C)(CC(C)(Sc1cc(C(C)(C)C)c(O)c(C(C)(C)C)c1)Sc1cc(C(C)(C)C)c(O)c(C(C)(C)C)c1)Sc1cc(C(C)(C)C)c(O)c(C(C)(C)C)c1 |
| 174 to 175 °C | O=C(NCc1ccc2ccccc2c1)C1=C(C(=O)Nc2cc(OC3CCCC3)c(Cl)cc2F)CCCC1 |
| 227 to 228 °C | COc1cccc2c1c(N1CCOCC1)nc1c(-c3noc(C4CC4)n3)ncn12 |
| 105 to 108 °C | COc1ccc(C=C=C(C)C(=O)O)cc1 |
| 116 to 117 °C | C(=C1c2ccccc2-c2ccccc21)c1nc(COc2ccc(CCCn3ccnc3)cc2)co1 |
| 94 to 96 °C | COc1cccc(-c2c(F)c(F)c(N)c(F)c2F)c1 |
| 50 to 55 °C | CC(=O)O[C@@H]1C=C2C=C3C(=C(C)C(=O)N3C)C[C@]2(C)[C@@H](C)[C@H]1O |
| 114 to 116 °C | Cc1cc([N+](=O)[O-])c2c(c1Cl)CC(C)O2 (stereo not given) |
| 256 to 258 °C | Cc1nc(NC(=O)c2ccc(C#N)cc2)sc1C(=O)NCc1ccccc1 |
| 161 to 162 °C | COc1cccc(C(=O)N2C(=O)CN(c3ccccc3)C2=O)c1 |
| 114 to 115 °C | CC(=O)Nc1ccc(CO)cc1[N+](=O)[O-] |
| 62 to 65 °C | Cc1ccc(N(Cc2cccnc2)S(C)(=O)=O)c(C)c1 |
| 56 to 58 °C | C=CCSc1ccc(OCc2ccccc2)nn1 |
| 170 °C | COc1ccc(CN(C)CCN(C)Cc2ccc(NC(=O)c3cccc4c(=O)c5cccc(OC)c5[nH]c34)cc2)cc1OC |
| 69 °C | COC(=O)CCCOc1ccc(C=O)cc1OC |
| 164 to 166 °C | Cc1ccc(S(=O)(=O)NC(=O)C2C(=O)CC(c3ccccc3)CC2=O)cc1 (stereo not given) |
| 104 to 106 °C | CCOc1nc(C)nc2oc(-c3ccco3)nc12 |
| 84 °C | COc1cccc(C(=O)c2ccc([N+](=O)[O-])c(C=O)c2)c1 |
| 116 to 118 °C | OC1(CC2CO2)c2ccccc2CCc2ccccc21 (stereo not given) |
| 198 to 203 °C | CCOC(OCC)c1cc(=O)[nH]c(N)n1 |
| 195 to 197 °C | O=c1c2ccccc2nc(-c2cc(-c3ccncc3)c(N3CCOCC3)s2)n1-c1ccc(Cl)cc1 |
| 66 °C | CCCCCCc1ccc(-c2ccc(C3CCC(C#N)(CCCCCC)CC3)cc2)cc1 (stereo not given) |

| melting point | Compound |
| --- | --- |
| 174 to 175 °C | CC(C)c1cc(/C=C/C(=O)O)n(Cc2ccc(Cl)cc2Cl)n1 |
| > 195 °C | CCCCCC(CCCCC)n1c(=O)sc2c(=O)[nH]c(N)nc21 |
| 138 to 140 °C | Cc1ccc2c(c1)C(=O)N(CCN1CCC(c3noc4cc(F)ccc34)CC1)C2=O |
| 92 to 95 °C | CC(C)C[C@H](NC(=O)CCOc1ccccc1)C(=O)N[C@@H](C(C)C)[C@@H](O)c1c(-c2ccccc2)c1=O |
| 146 to 148 °C | O=c1cc(C(F)(F)F)cnn1-c1c(F)cc(Cl)c(O)c1[N+](=O)[O-] |
| 100 to 102 °C | O=C1C(CCO)Oc2cc([N+](=O)[O-])ccc2N1Cc1cccc(Cl)c1 (stereo not given) |
| 126 to 127 °C | Cc1ccccc1NNC1=NCCS1 |
| 166 to 167 °C | CN(Cc1cc2c3c(c1)c(=O)c(C(=O)NCc1ccc(Cl)cc1)cn3CC(=O)N2CCO)C[C@@H](O)c1ccco1 |
| 124 to 125 °C | O=C1c2ccccc2C(=O)N1CCSc1ccc(O)cc1 |
| 137 to 138 °C | COCC1=C(C(=O)OC)C(c2ccccc2Cl)C(C(=O)OC)=C(COC)N1 |
| 130 to 131 °C | CC(C)(C)OC(=O)N1CCC(COc2ccc([N+](=O)[O-])cc2)CC1 |
| 140 to 145 °C | O=C(CCCCCCCCCCC(=O)Oc1cc(O)cc(O)c1)Oc1cc(O)cc(O)c1 |
| 79 to 80 °C | CCC(=O)c1ccc2cc(OC(C)C)ccc2c1 |
| 155 to 157 °C | Cc1nc2c3c(c(CCl)cn2c1C)CCC(c1ccccc1)C3 (stereo not given) |
| 131 °C | CCc1nn(C(=O)NS(=O)(=O)c2ccccc2C(=O)OC)c(=O)n1C |
| 179 °C | COc1cc(NNc2nccc(Nc3ccc4nc(C)[nH]c4c3)n2)cc(OC)c1OC |
| 250 °C | COC(=O)c1ccc(-c2oc3cc(NS(C)(=O)=O)ccc3c(=O)c2OS(C)(=O)=O)cc1 |
| 221 to 223 °C | COC(=O)c1ccccc1C=CC(=O)C=Cc1ccccc1C(=O)OC |
| 96 to 98 °C | CCOC(=O)COc1cc(Cl)c(C(=O)c2ccc([N+](=O)[O-])cc2)c(Cl)c1 |
| 167 °C | O=c1c2cccnc2c(-c2cccc([N+](=O)[O-])c2)nn1-c1ccccc1 |
| > 240 °C | Nn1c(=O)c(=O)[nH]c2ccc3ccc([N+](=O)[O-])cc3c21 |

| Compound | melting point |
| --- | --- |
| CN1C(=O)CN=C(c2cccc(C(F)(F)F)c2)c2ccccc21 | 121 to 122 °C |
| OCc1ccc(C23CNCC2C3)cc1 (stereo not given) | 80 to 82 °C |
| c1cncc(C2=NOC(C3CC3)(N3CCCC3)C2)c1 (stereo not given) | 90 to 92 °C |
